The values that follow come from ChEMBL document CHEMBL4602629, “Isolation of three new meroterpenoids and seven known compounds from Albatrellus yasudae and their Aβ-aggregation inhibitory activity” (Bioorg Med Chem Lett, 2020).

Each structure is given as a SMILES string.

Chain of Amyloid-beta precursor protein (P05067 whole entry): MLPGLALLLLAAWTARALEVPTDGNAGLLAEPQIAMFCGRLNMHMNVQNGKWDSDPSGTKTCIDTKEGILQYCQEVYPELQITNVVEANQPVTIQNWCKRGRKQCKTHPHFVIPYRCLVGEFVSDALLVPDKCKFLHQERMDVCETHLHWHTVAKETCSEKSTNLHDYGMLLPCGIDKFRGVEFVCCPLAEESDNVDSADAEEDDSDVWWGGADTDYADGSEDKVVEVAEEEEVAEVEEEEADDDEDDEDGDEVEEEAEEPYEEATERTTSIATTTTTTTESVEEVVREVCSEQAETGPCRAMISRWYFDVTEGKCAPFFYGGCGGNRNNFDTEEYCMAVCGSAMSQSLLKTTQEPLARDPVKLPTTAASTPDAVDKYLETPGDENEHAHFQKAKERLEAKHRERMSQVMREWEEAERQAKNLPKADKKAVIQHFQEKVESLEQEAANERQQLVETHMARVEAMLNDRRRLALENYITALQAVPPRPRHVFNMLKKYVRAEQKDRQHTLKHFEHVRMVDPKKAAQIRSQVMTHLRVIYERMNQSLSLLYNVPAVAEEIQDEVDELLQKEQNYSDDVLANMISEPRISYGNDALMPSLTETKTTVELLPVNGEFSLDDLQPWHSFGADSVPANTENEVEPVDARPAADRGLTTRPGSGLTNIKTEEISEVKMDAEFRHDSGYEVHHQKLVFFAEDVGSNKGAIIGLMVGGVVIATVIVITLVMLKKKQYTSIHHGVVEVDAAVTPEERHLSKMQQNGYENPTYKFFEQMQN

The assay concerns the target Amyloid-beta precursor protein (Homo sapiens, UniProt P05067). Briefly: Inhibition of human amyloid beta (1 to 40) aggregation after 24 hrs by ThT fluorescence assay.
`COc1c(O)c(O)cc(C)c1C/C=C(\C)CC/C=C(\C)CCC=C(C)C` yielded an IC50 of 29.3 µM. `CCCCCCCCCCCCCCC[C@@H](O)C(=O)N[C@@H](CO[C@@H]1O[C@H](CO)[C@@H](O)[C@H](O)[C@H]1O)[C@H](O)/C=C/CC/C=C(\C)CCCCCCCCC` [CEREBROSIDE]: 62.7 µM corresponded to half-maximal inhibition (IC50). `CC(C)=CCC/C(C)=C/CC/C(C)=C/Cc1c(C)cc(O)cc1O` had a 50% inhibitory concentration (IC50) of 19.9 µM. `CC(C)=CCC/C(C)=C/CC/C(C)=C/Cc1c(C)cc(O)c(O)c1O`: inhibition was half-maximal at 16.7 µM (IC50). Regarding `COc1c(O)c(O)c(-c2c(C)c(C/C=C(\C)CC/C=C(\C)CCC=C(C)C)c(OC)c(O)c2O)c(C)c1C/C=C(\C)CC/C=C(\C)CCC=C(C)C`, the 50% inhibitory concentration (IC50) was found to be 12.3 µM. Regarding `CC(C)=CCC/C(C)=C/CC/C(C)=C/Cc1c(O)cc(C)c(C(=O)O)c1O` [GRIFOLIC ACID], inhibition was half-maximal at 20.3 µM (IC50). Regarding `CC(C)=CCC/C(C)=C/CC/C(C)=C/Cc1c(O)cc(C)cc1O` [GRIFOLIN], the IC50 was found to be 149 µM. As to `CC(C)=CC(=O)C/C(C)=C/CC/C(C)=C/Cc1c(O)cc(C)c(C(=O)O)c1O`, the 50% inhibitory concentration (IC50) amounted to 151 µM.

For the compound `COC(=O)c1c(C)cc(O)c(C/C=C(\C)CC/C=C(\C)CCC=C(C)C)c1O`, the IC50 was 221 µM. `CC(C)=CCC/C(C)=C/CC[C@@]1(C)C=Cc2c(cc(C)c(C(=O)O)c2O)O1` [DAURICHROMENIC ACID]: the concentration for half-maximal inhibition (IC50) is 24.7 µM. With `CC(C)=CCC/C(C)=C/CCC1(C)C=Cc2c(O)cc(C)cc2O1` (stereo unspecified), the IC50 is 68 µM.

By IC50 is commonly meant the concentration at which inhibition is half-maximal.
